Assay results taken from PMC10535864, “Novel Aminopyrimidine-2,4-diones, 2-Thiopyrimidine-4-ones, and 6-Arylpteridines as Dual-Target Inhibitors of BRD4/PLK1: Design, Synthesis, Cytotoxicity, and Computational Studies” (Pharmaceuticals, 2023).
Like-named read-outs stand apart in the source and are kept apart here.

Legend:
[1] = test system: MDA-MB-231 breast cancer cells; experiment: MTT cytotoxicity assay, MDA-MB-231; assay type: cell-based; conditions: for IC50 / viability at 0.312 µM / viability at 0.625 µM / viability at 1.25 µM / viability at 2.5 µM / viability at 5 µM / viability at 10 µM: Homo sapiens; for IC50 / viability at 0.312 µM / viability at 0.625 µM / viability at 1.25 µM / viability at 2.5 µM / viability at 5 µM / viability at 10 µM / Toxicity %: MDA-MB-231; for Selectivity Indices (SI) MDA-MB-231: SI = IC50 normal cells (Vero)/IC50 cancer cells, ≥5 highly, >2 moderately, <2 non-selective
Procedure, shortened: (§1)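 Cells seeded at 1 X 10^5 cells/mL and grown 24 h at 37°C to a monolayer, then exposed to two-fold compound dilutions in RPMI with 2% serum, six doses. MTT added for 4 h at 37°C, formazan dissolved in DMSO, OD read at 560 nm minus 620 nm background. IC50 from dose-response.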

[2] = test system: HT-29 colorectal adenocarcinoma cells; experiment: MTT cytotoxicity assay, HT-29; assay type: cell-based; conditions: for viability at 0.312 µM / viability at 0.625 µM / viability at 1.25 µM / viability at 2.5 µM / viability at 5 µM / viability at 10 µM / IC50: Homo sapiens, HT-29; for Selectivity Indices (SI) HT-29: SI = IC50 normal cells (Vero)/IC50 cancer cells
Procedure, shortened: as §1

[3] = MTT cytotoxicity assay, U-937; assay type: cell-based; conditions: Homo sapiens, U-937, U937, MTT;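 note: Six-dose MTT colorimetric assay on cell monolayers, formazan absorbance read at 560 nm with 620 nm background removed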
[4] = test system: U-937 renal cancer cells; experiment: MTT cytotoxicity assay, U-937; assay type: cell-based; conditions: for IC50: Homo sapiens, U-937; for Selectivity Indices (SI) U-937: SI = IC50 normal cells (Vero)/IC50 cancer cells;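 for all read-outs here: Six-dose MTT colorimetric assay on cell monolayers, formazan absorbance read at 560 nm with 620 nm background removed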
[5] = MTT cytotoxicity assay, normal Vero cells; assay type: cell-based; conditions: African green monkey, normal Vero cells, MTT; for IC50: mean of three independent experiments ± SD, read-out: In Vitro Cytotoxicity against Normal Cells IC50 Value, Vero Cells; for viability at 0.312 µM / viability at 0.625 µM / viability at 1.25 µM / viability at 2.5 µM / viability at 5 µM / viability at 10 µM: Vero
Experimental: (§2) Using a six-dose MTT colorimetric assay [44, 66], all new synthetic compounds were tested for cytotoxicity against three cancer cell lines: MDA-MB-231 breast cancer cells, HT-29 colorectal adenocarcinoma cells, and U-937 renal cancer cells. […] These cell lines were supplied by ATCC (American Type Culture Collection) via the Holding company for biological products and vaccines (VACSERA, Cairo, Egypt). The reference control used was Methotrexate.
1.1.In-vitro cytotoxicity screening
(§3) Using a six-dose MTT colorimetric assay [44, 66], allnew synthetic compounds were tested for cytotoxicity against three cancer cell lines: MDA-MB-231 breast cancer cells,HT-29 colorectal adenocarcinoma cells, and U-937 renal
(§4) The cell lines were supplied by ATCC (American Type Culture Collection). The reference control used was Methotrexate. The cytotoxic activities of the examined compounds were quantified by inoculating a 96-well tissue culture plate with 1 X 10^5 cells / mL (100 uL/well) and incubating it at 37°C for 24 hours to develop a complete monolayer sheet. After forming a confluent sheet of cells, the growth medium was decanted from 96-well microtiter plates, and the cell monolayer was washed twice with wash media. Two-fold dilutions of tested samples were made in RPMI medium with 2% serum (maintenance medium), and 0.1 mL of each dilution was tested in different wells, with three wells serving as controls and receiving only maintenance medium. Following that, the plate was incubated at 37°C and examined. Cells were investigated for any physical signs of toxicity, such as partial or complete monolayer loss, rounding, shrinkage, or cell granulation. MTT solution was prepared (5mg/ml in PBS) (BIO BASIC CANADA INC), and 20 uL MTT solution was added to each well. After 5 minutes on a shaking table at150 rpm to thoroughly mix the MTT into the media, it was incubated (37C, 5% CO2) for 4 hours to allow the MTT to be metabolized. Formazan (MTT metabolic product) was resuspended in 200 uL DMSO and shaken at 150 rpm for 5 minutes to thoroughly mix the formazan into the solvent. The optical density was measured at 560 nm, and the background was subtracted at 620 nm. Finally, the IC50 of the test compound in comparison to the reference was calculated using the GraphPad Prism software.

[6] = test system: normal Vero cells; experiment: MTT cytotoxicity assay, normal Vero cells; assay type: cell-based; conditions: Vero; for IC50: Chlorocebus sabaeus, supplement viability lab report; for Toxicity %: MTT
Experimental: as §2
1.1.In-vitro cytotoxicity screening
as §3, §4

[7] = target: T1, BRD4 (BD2) (Homo sapiens, UniProt O60885); experiment: BRD4 inhibitory activity assay (AlphaLISA Bromodomain Assay); assay type: binding; conditions: for %inh: BRD4 Lab Report; for IC50: mean of three independent experiments, read-out: BRD4 IC50 ± SD;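 for all read-outs here: in vitro inhibition of recombinant BRD4 BD2 bromodomain binding to a BET bromodomain ligand, read by AlphaLISA proximity signal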
T1 construct: BRD4 (BD2) should be thawed on ice; purchased
Experimental: The BRD4 and PLK1 inhibitory assays were carried out in vitro in accordance with the manufacturer’s instructions; BRD4 was assessed using AlphaLISA Bromodomain Assay Protocol [67], and PLK1 kinase was tested using the ADP-Glo™ Kinase Assay Protocol [68], as detailed in the Supplementary file.
The BRD4 and PLK1 inhibitory assays were carried out in vitro in accordance with the manufacturer's instructions; BRD4 was assessed using AlphaLISA Bromodomain Assay Protocol [67], and PLK1 kinase was tested using the ADP-Glo™ Kinase Assay Protocol [68],
The master mixture was prepared as follows: N wells × (2.5 µL 3x BRD Homogeneous Assay Buffer 1 + 1 µL BET Bromodomain Ligand + 1.5 µL H2O). BRD4 (BD2) should be thawed on ice. Simply, the protein-containing tube was spined to recover the full content of the tube after the firstthaw. Both proteins should be aliquoted into single-use aliquots. Immediately, any remaining undiluted protein should be stored in aliquots at -80°C. BRD4 (BD2) was diluted in 1x BRD Homogeneous Assay Buffer 1 at 4 ng/µL. The diluted proteins were kept on ice until they were used. 5 µl of the master mixture is added to each well designated for the “Positive Control”, “Test Inhibitor”, and “Blank”. For the “Substrate Control”, 2.5 µL 3x BRD Homogeneous Assay Buffer 1 + 1 µL Non-acetylated Ligand 1 + 1.5 µL H2O is added. Each “Test Inhibitor” well received 2.5 µL of inhibitor solution, while the “Positive
Control”, “Substrate Control”, and “Blank” wells received 2.5 µL of the same solution without inhibitor (inhibitor buffer). Then, the “Blank” well is filled with 2.5 µL of 1x BRD Homogeneous Assay Buffer 1. After that, GSH
10 µL per well is added, the plate isshaken, and itis incubated at room temperature for 30 minutes. Streptavidin-
10 µL is added per well and incubated at room temperature for further 15 – 30 minutes [67]. The Alpha counts were read using the EnVision® multimode plate reader with the standard Alpha detection settings.

[8] = target: human recombinant PLK1 (Homo sapiens, UniProt P53350); experiment: PLK1 inhibitory activity assay (ADP-Glo Kinase Assay); assay type: biochemical; conditions: for %inh: PLK1 Lab Report; for IC50: mean of three independent experiments, read-out: PLK1 IC50 ± SD
human recombinant PLK1, sequence (P53350 whole entry): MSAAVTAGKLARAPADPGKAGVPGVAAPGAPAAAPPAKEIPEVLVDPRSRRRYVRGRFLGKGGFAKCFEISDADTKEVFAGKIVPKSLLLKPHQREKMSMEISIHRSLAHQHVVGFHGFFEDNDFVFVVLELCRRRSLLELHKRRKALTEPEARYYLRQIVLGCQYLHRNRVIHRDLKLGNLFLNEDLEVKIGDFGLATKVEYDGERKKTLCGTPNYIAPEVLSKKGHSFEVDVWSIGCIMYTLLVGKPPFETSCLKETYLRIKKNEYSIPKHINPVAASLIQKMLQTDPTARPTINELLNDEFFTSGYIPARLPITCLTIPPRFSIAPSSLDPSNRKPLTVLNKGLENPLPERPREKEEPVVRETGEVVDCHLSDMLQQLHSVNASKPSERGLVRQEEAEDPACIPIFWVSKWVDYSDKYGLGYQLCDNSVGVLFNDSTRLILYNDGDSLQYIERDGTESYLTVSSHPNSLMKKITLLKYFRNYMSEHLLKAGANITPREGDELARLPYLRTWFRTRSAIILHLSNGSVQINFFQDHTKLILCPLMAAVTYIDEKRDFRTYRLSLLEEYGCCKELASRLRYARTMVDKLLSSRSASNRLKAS

[9] = MTT, mean of three independent experiments ± SD, read-out: IC50 Value MDA-MB-231
[10] = supplement viability lab report, read-out: IC50 ± SD
[11] = MTT, mean of three independent experiments ± SD, read-out: IC50 Value HT-29
[12] = supplement viability lab report, HT29, read-out: IC50 ± SD
[13] = MTT, mean of three independent experiments ± SD, read-out: IC50 Value U-937
[14] = supplement viability lab report, U937, read-out: IC50 ± SD

In the case of `CCn1c(N)c(/N=C(/CBr)c2ccc(OC)cc2)c(=O)[nH]c1=O` [Compound 6a, (E)-6-Amino-5-((2-bromo-1-(4-methoxyphenyl)ethylidene)amino)-1-ethylpyrimidine-2,4(1H,3H)-dione], the IC50 [1, 9] is reported as 630 ± 10 nM, the viability at 0.312 µM ([1]; MTT, 0.312 uM) is reported as 100% and the viability at 0.625 µM ([1]; MTT, 0.625 uM) is reported as 98.9%. The viability at 1.25 µM ([1]; MTT, 1.25 uM) was 27.1%, the viability at 2.5 µM ([1]; MTT, 2.5 uM) was 5.98% and the viability at 5 µM ([1]; MTT, 5 uM) was 3.37%. For the same compound, the viability at 10 µM ([1]; MTT, 10 uM) was 4.03%, the IC50 [1, 10] was 1000 nM and the Toxicity % ([1]; MTT, 0.312 uM) was 0.04433%. The Toxicity % ([1]; MTT, 0.625 uM) was 1.064%, the Toxicity % ([1]; MTT, 1.25 uM) was 72.92% and the Toxicity % ([1]; MTT, 2.5 uM) was 94.02%. The Toxicity % ([1]; MTT, 5 uM) was 96.63%, the Toxicity % ([1]; MTT, 10 uM) was 95.97% and the “Selectivity Indices (SI) MDA-MB-231” value [1] was 3.27. The Toxicity % ([2]; HT29, MTT, 0.312 uM) was 0.3876%, the Toxicity % ([2]; HT29, MTT, 0.625 uM) was 0.04307% and the Toxicity % ([2]; HT29, MTT, 1.25 uM) was 26.57%. For the same compound, the Toxicity % ([2]; HT29, MTT, 2.5 uM) was 89.88%, the Toxicity % ([2]; HT29, MTT, 5 uM) was 95.95% and the Toxicity % ([2]; HT29, MTT, 10 uM) was 95.74%. For the same compound, the viability at 0.312 µM ([2]; HT29, MTT, 0.312 uM) was 99.6%, the viability at 0.625 µM ([2]; HT29, MTT, 0.625 uM) was 100% and the viability at 1.25 µM ([2]; HT29, MTT, 1.25 uM) was 73.4%. For the same compound, the viability at 2.5 µM ([2]; HT29, MTT, 2.5 uM) was 10.1%, the viability at 5 µM ([2]; HT29, MTT, 5 uM) was 4.05% and the viability at 10 µM ([2]; HT29, MTT, 10 uM) was 4.26%. The IC50 [2, 11] was 750 ± 10 nM, the IC50 [2, 12] was 1690 nM and the “Selectivity Indices (SI) HT-29” value [2] was 2.75. The viability at 0.312 µM [3] was 99.1%, the viability at 0.625 µM [3] was 96.1% and the viability at 1.25 µM [3] was 40.3%. It also gave a viability at 2.5 µM [3] of 14.5%, a viability at 5 µM [3] of 13.2% and a viability at 10 µM [3] of 9.91%. For the same compound, the IC50 [4, 13] was 970 ± 10 nM, the IC50 [4, 14] was 1120 nM and the “Selectivity Indices (SI) U-937” value [4] was 2.12. It also gave a Toxicity % ([4]; U937, MTT, 0.312 uM) of 0.8715%, a Toxicity % ([4]; U937, MTT, 0.625 uM) of 3.867% and a Toxicity % ([4]; U937, MTT, 1.25 uM) of 59.69%. For the same compound, the Toxicity % ([4]; U937, MTT, 2.5 uM) was 85.46%, the Toxicity % ([4]; U937, MTT, 5 uM) was 86.76% and the Toxicity % ([4]; U937, MTT, 10 uM) was 90.09%. For the same compound, the IC50 [5] was 2060 ± 30 nM, the viability at 0.312 µM [5] was 99.8% and the viability at 0.625 µM [5] was 99.2%. For the same compound, the viability at 1.25 µM [5] was 83.6%, the viability at 2.5 µM [5] was 26.8% and the viability at 5 µM [5] was 11.6%. For the same compound, the viability at 10 µM [5] was 4.59%, the IC50 [6] was 1950 nM and the Toxicity % ([6]; 0.312 uM) was 0.1996%. For the same compound, the Toxicity % ([6]; 0.625 uM) was 0.7585%, the Toxicity % ([6]; 1.25 uM) was 16.37% and the Toxicity % ([6]; 2.5 uM) was 73.21%. For the same compound, the Toxicity % ([6]; 5 uM) was 88.38%, the Toxicity % ([6]; 10 uM) was 95.41% and the “%inh” value ([7]; conc 0.01 (unit not given)) was 34%. The “%inh” value ([7]; conc 0.1 (unit not given)) was 49%, the “%inh” value ([7]; conc 1 (unit not given)) was 73% and the “%inh” value ([7]; conc 10 (unit not given)) was 88%. For the same compound, the “%inh” value ([7]; conc 100 (unit not given)) was 95%, the IC50 [7] was 141 ± 6 nM and the “%inh” value ([8]; conc 0.01 (unit not given)) was 25%. The “%inh” value ([8]; conc 0.1 (unit not given)) was 42%, the “%inh” value ([8]; conc 1 (unit not given)) was 65% and the “%inh” value ([8]; conc 10 (unit not given)) was 87%. The “%inh” value ([8]; conc 100 (unit not given)) was 94% and the IC50 [8] was 218 ± 10 nM.
With `COc1ccc(/C(CBr)=N\c2c(N)n(Cc3ccccc3Cl)c(=O)[nH]c2=O)cc1` [Compound 6b, (E)-6-Amino-5-((2-bromo-1-(4-methoxyphenyl)ethylidene)amino)-1-(2-chlorobenzyl) pyrimidine-2,4(1H,3H)-dione] the IC50 [1, 9] was 1000 ± 20 nM, the viability at 0.312 µM ([1]; MTT, 0.312 uM) was 84.9% and the viability at 0.625 µM ([1]; MTT, 0.625 uM) was 26.6%. For the same compound, the viability at 1.25 µM ([1]; MTT, 1.25 uM) was 10.2%, the viability at 2.5 µM ([1]; MTT, 2.5 uM) was 8.47% and the viability at 5 µM ([1]; MTT, 5 uM) was 8.55%. It also gave a viability at 10 µM ([1]; MTT, 10 uM) of 4.7%, an IC50 [1, 10] of 630 nM and a Toxicity % ([1]; MTT, 0.312 uM) of 15.07%. For the same compound, the Toxicity % ([1]; MTT, 0.625 uM) was 73.45%, the Toxicity % ([1]; MTT, 1.25 uM) was 89.85% and the Toxicity % ([1]; MTT, 2.5 uM) was 91.53%. The Toxicity % ([1]; MTT, 5 uM) was 91.45%, the Toxicity % ([1]; MTT, 10 uM) was 95.3% and the “Selectivity Indices (SI) MDA-MB-231” value [1] was 1.95. The Toxicity % ([2]; HT29, MTT, 0.312 uM) was 0.3876%, the Toxicity % ([2]; HT29, MTT, 0.625 uM) was 47.33% and the Toxicity % ([2]; HT29, MTT, 1.25 uM) was 95.82%. The Toxicity % ([2]; HT29, MTT, 2.5 uM) was 95.95%, the Toxicity % ([2]; HT29, MTT, 5 uM) was 95.61% and the Toxicity % ([2]; HT29, MTT, 10 uM) was 93.71%. For the same compound, the viability at 0.312 µM ([2]; HT29, MTT, 0.312 uM) was 99.6%, the viability at 0.625 µM ([2]; HT29, MTT, 0.625 uM) was 52.7% and the viability at 1.25 µM ([2]; HT29, MTT, 1.25 uM) was 4.18%. The viability at 2.5 µM ([2]; HT29, MTT, 2.5 uM) was 4.05%, the viability at 5 µM ([2]; HT29, MTT, 5 uM) was 4.39% and the viability at 10 µM ([2]; HT29, MTT, 10 uM) was 6.29%. The IC50 [2, 11] was 1690 ± 10 nM, the IC50 [2, 12] was 750 nM and the “Selectivity Indices (SI) HT-29” value [2] was 1.15. It also gave a viability at 0.312 µM [3] of 99.1%, a viability at 0.625 µM [3] of 77.5% and a viability at 1.25 µM [3] of 28%. For the same compound, the viability at 2.5 µM [3] was 12.2%, the viability at 5 µM [3] was 10.4% and the viability at 10 µM [3] was 9.69%. The IC50 [4, 13] was 1120 ± 20 nM, the IC50 [4, 14] was 970 nM and the “Selectivity Indices (SI) U-937” value [4] was 1.74. The Toxicity % ([4]; U937, MTT, 0.312 uM) was 0.9259%, the Toxicity % ([4]; U937, MTT, 0.625 uM) was 22.49% and the Toxicity % ([4]; U937, MTT, 1.25 uM) was 72%. For the same compound, the Toxicity % ([4]; U937, MTT, 2.5 uM) was 87.8%, the Toxicity % ([4]; U937, MTT, 5 uM) was 89.6% and the Toxicity % ([4]; U937, MTT, 10 uM) was 90.31%. The IC50 [5] was 1950 ± 50 nM, the viability at 0.312 µM [5] was 99.1% and the viability at 0.625 µM [5] was 99.1%. The viability at 1.25 µM [5] was 70.3%, the viability at 2.5 µM [5] was 38.4% and the viability at 5 µM [5] was 12.8%. The viability at 10 µM [5] was 6.15%, the IC50 [6] was 2060 nM and the Toxicity % ([6]; 0.312 uM) was 0.9182%. The Toxicity % ([6]; 0.625 uM) was 0.8782%, the Toxicity % ([6]; 1.25 uM) was 29.74% and the Toxicity % ([6]; 2.5 uM) was 61.6%. For the same compound, the Toxicity % ([6]; 5 uM) was 87.19%, the Toxicity % ([6]; 10 uM) was 93.85% and the “%inh” value ([7]; conc 0.01 (unit not given)) was 30%. The “%inh” value ([7]; conc 0.1 (unit not given)) was 46%, the “%inh” value ([7]; conc 1 (unit not given)) was 67% and the “%inh” value ([7]; conc 10 (unit not given)) was 83%. For the same compound, the “%inh” value ([7]; conc 100 (unit not given)) was 94%, the IC50 [7] was 77 ± 3 nM and the “%inh” value ([8]; conc 0.01 (unit not given)) was 28%. For the same compound, the “%inh” value ([8]; conc 0.1 (unit not given)) was 40%, the “%inh” value ([8]; conc 1 (unit not given)) was 65% and the “%inh” value ([8]; conc 10 (unit not given)) was 80%. The “%inh” value ([8]; conc 100 (unit not given)) was 94% and the IC50 [8] was 204 ± 9 nM.
